Values after ≈ are worked out from the molar mass of the structure shown.

This data set is described as follows: solubility of suspension in buffer. In kind it is physicochemical. The conditions noted are these: aqueous buffer; in the buffer at 37° C. when implanted.

Take `CC1(C)O[C@@H]2C[C@H]3[C@@H]4CCC5=CC(=O)C=C[C@]5(C)[C@@]4(F)[C@@H](O)C[C@]3(C)[C@]2(C(=O)CO)O1` [triamcinolone acetonide]: the solubility is ~19 µg/mL (≈ 43.7 µM).
